Results taken from patent US20080305547A1, “Method for enhanced functional expression of cell receptors” (priority 2007, published 2008).

Assays:
mOR-EG [1] = target: T1, mOR-EG (Mus musculus, UniProt Q920P2); assay: cAMP ELISA in transfected HEK293T cells expressing mOR-EG; assay type: cell-based, murine; settings: HEK293T transfected with untagged mOR-EG and Gαolf; 300 μM, 10 minutes
T1 construct: expressed in transfected cells; host or cells: HEK293T
T1 sequence (Q920P2 1-313): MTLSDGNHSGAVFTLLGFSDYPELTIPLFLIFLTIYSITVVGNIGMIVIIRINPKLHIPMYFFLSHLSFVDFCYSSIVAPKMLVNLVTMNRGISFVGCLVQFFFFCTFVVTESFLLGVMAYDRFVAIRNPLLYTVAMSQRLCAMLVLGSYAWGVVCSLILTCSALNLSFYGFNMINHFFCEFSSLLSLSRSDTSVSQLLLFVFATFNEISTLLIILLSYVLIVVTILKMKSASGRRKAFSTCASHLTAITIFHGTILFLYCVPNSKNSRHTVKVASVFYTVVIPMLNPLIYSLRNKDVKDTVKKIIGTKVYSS

mOR-EG [2] = target: T1, mOR-EG; assay: as above; assay type: cell-based, murine; settings: cells transfected with mOR-EG, Ric-8B and Gαolf; 300 μM
Method: (§1) These experiments were carried out in order to determine if Ric-8B amplifies signaling through odorant receptors (“ORs” hereafter). This was accomplished by using one of the murine ORs, i.e., first cloning murine OR-EG (“mOR-EG” hereafter), from murine genomic DNA via polymerase chain reaction (“PCR”), using standard method. Following this, receptor specificity was confirmed by functional expression of the rhodopsin tagged version of mOR-EG, in HEK293T cells. This is explained infra.
(§2) HEK293T cells were plated, at 0.5×10^5 cells/well, of a 96 well plate. The cells were cultured using standard conditions, for 16-20 hours, after which they were transfected, via the well known, lipofectamine method with mOR-EG cDNA that had been subcloned into the XboI and KpnI restriction sites of plasmid pcDNA 3.1 (−), Gαolf whose full length cDNA had been cloned from murine olfactory epithelium, and subcloned into the XboI site of pcDNA 3.1 (−) expression vector, and Ric-8B, whose full length encoding cDNA had been prepared the same way and then cloned into pcDNA3 vector, with a flag epitope, at the BamHI site of pcDNA3 were used. 100 ngs of each cDNA construct were used for transfection. After 3 hours of transfection, serum containing medium was replaced by serum free medium, and the cells were incubated for 40 hours. Then, additional serum free medium containing 300 μM of eugenol was added, after which cells were incubated for 10 minutes. Activity was determined, by using a commercially available, cAMP ELISA kit.
(§3) In these experiments, mOR-EG odorant specificity was tested, in cells which had also been transfected with Ric-8B and Gαolf Vanillin, nonenedoic acid, acetophenone, (−), limonene, heptanol, 2-heptanol, hexanol, and (+/−) cerveone were tested at high concentrations (300 μM).

mOR-EG [3] = target: T2, mOR-EG (Mus musculus, UniProt Q920P2); assay: as above; assay type: cell-based, murine; settings: HEK293T transfected with rhodopsin tagged mOR-EG, Gαolf (and Ric-8B); 300 μM, 10 minutes
T2 construct: expressed in transfected cells; host or cells: HEK293T
T2 sequence (Q920P2 with tags, fused parts or gaps): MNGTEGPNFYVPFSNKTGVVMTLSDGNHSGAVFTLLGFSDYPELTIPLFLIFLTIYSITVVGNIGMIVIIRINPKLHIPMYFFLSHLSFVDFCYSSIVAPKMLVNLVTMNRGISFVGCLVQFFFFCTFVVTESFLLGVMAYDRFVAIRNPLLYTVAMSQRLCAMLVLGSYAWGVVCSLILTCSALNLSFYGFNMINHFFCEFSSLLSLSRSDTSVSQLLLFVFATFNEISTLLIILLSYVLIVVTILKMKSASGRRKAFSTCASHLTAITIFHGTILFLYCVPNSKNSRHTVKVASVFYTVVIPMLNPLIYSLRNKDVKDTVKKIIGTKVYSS
Method: as §1, §2, §3

mOR-EG [4] = target: T2, mOR-EG; settings: previously shown; cited from earlier work
rat OR-17 = target: T3, rat OR-17 (Rattus norvegicus, UniProt P23270); settings: cited from earlier work
T3 sequence (P23270 1-327): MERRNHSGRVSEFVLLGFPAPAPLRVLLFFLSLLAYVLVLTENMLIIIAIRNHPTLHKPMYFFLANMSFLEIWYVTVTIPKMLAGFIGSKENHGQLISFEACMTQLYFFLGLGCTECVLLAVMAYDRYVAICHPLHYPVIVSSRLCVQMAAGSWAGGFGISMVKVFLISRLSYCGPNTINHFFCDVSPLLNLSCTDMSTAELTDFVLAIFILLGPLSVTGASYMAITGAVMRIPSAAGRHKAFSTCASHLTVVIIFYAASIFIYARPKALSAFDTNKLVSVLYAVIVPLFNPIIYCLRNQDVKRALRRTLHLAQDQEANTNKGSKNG

murine form of OR-17 = target: T4, murine form of OR-17 (Mus musculus, UniProt Q9QWU6); settings: co-expression with Gα/16 in HEK293 cells; cited from earlier work
T4 construct: host or cells: HEK293
T4 sequence (Q9QWU6 1-327): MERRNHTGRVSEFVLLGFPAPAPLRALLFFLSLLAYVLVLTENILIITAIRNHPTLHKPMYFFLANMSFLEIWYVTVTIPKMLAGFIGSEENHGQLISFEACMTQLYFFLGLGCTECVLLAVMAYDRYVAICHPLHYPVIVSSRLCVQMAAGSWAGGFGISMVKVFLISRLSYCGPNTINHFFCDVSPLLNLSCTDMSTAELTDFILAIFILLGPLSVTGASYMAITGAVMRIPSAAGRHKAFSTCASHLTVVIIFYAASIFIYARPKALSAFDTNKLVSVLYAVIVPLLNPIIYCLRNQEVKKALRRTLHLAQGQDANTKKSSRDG

OR-17 = target: T5, OR-17 (Mus musculus, UniProt Q9QWU6); settings: GFP tagged mouse olfactory neurons endogenously expressing OR-17; cited from earlier work
T5 construct: mouse olfactory neurons which endogenously express OR-17; host or cells: mouse olfactory neurons
T5 sequence (Q9QWU6 1-327): T4 sequence (Q9QWU6 1-327)

mOR-17 = target: T6, mOR-17 (Mus musculus, UniProt Q9QWU6); assay: cAMP ELISA in transfected HEK293T cells expressing mOR-17; assay type: cell-based, murine
T6 construct: expressed in transfected cells; host or cells: HEK293T
T6 sequence (Q9QWU6 1-327): T4 sequence (Q9QWU6 1-327)
Method: as §2
To further this work, the same protocols as are described supra were carried out, using untagged mOR-17, Gαolf, Ric-8B, and RTP1.

mOR-S6 [5] = settings: murine olfactory neurons, single cell RT-PCR; cited from earlier work
mOR-S6 [6] = assay: cAMP ELISA in transfected HEK293T cells expressing mOR-S6; assay type: cell-based, murine
Method: as §2
The same procedures set forth supra for isolating, cloning, and amplifying mOR-EG were used for the coding region of mOR-S6. Rhodopsin tagged mOR-S6 was also used. The same protocols were carried out as are discussed supra, using nonanedoic acid as the agonist.

C=CCc1ccc(O)c(OC)c1 [eugenol]
response to the agonist (cAMP) (mOR-EG [1]): did not respond
stimulation of cAMP production (odorant specificity) (mOR-EG [2]): stimulated production of cAMP
increase in cAMP levels as compared to unstimulated cells (factor) (mOR-EG [3]): ~3

COc1cc(C=O)ccc1O [Vanillin]
stimulation of rhodopsin tagged mOR-EG (mOR-EG [4]): has been shown to stimulate
stimulation of cAMP production (odorant specificity) (mOR-EG [2]): Only eugenol stimulated production of cAMP

CCCCCCO [hexanol]
stimulation of cAMP production (odorant specificity) (mOR-EG [2]): Only eugenol stimulated production of cAMP

CCCCCCCO [heptanol]
stimulation of cAMP production (odorant specificity) (mOR-EG [2]): Only eugenol stimulated production of cAMP

CCCCCCCCO [octanol]
recognition of odorant by receptor (rat OR-17): recognizes

CC(=O)c1ccccc1 [acetophenone]
stimulation of cAMP production (odorant specificity) (mOR-EG [2]): Only eugenol stimulated production of cAMP

C=C(C)C1CC=C(C)C(=O)C1 (racemic) [(+/−) cerveone, cerveone]
stimulation of cAMP production (odorant specificity) (mOR-EG [2]): Only eugenol stimulated production of cAMP

CCCCCCC=O [heptanal]
recognition of odorant by receptor (murine form of OR-17): preferentially recognizes
recognition of odorant by receptor (OR-17): recognized
response of transfected cells to odorant (cAMP) (mOR-17; all four elements: untagged mOR-17, Gαolf, Ric-8B and RTP1): responded to heptanal specifically
response of transfected cells to odorant (cAMP) (mOR-17; untagged mOR-17, Gαolf and RTP1 (RTP1 replaced Ric-8B)): did not
response of transfected cells to odorant (cAMP) (mOR-17; untagged mOR-17, Gαolf and Ric-8B): responded

O=C(O)CCCCCCCC(=O)O [nonanedoic acid]
response of the OR to the odorant (mOR-S6 [5]): responded
increase in cAMP production (mOR-S6 [6]; all four elements: rhodopsin tagged mOR-S6, Ric-8B, RTP1 and Gαolf): significant increase
increase in cAMP production (mOR-S6 [6]; cells co-transfected with mOR-S6, Gαolf and Ric-8B): no significant increase
increase in cAMP production (mOR-S6 [6]; cells co-transfected with mOR-S6 and Gαolf): no significant increase
increase in cAMP production (mOR-S6 [6]; mOR-S6, Gαolf and RTP1 (RTP1 replaced Ric-8B)): slight, insignificant increase
increase in cAMP production (mOR-S6 [6]; non-tagged mOR-S6 in parallel expression systems (Ric-8B, RTP1, Gαolf)): not observed
stimulation of cAMP production (odorant specificity) (mOR-EG [2]): Only eugenol stimulated production of cAMP

C=C(C)[C@H]1CC=C(C)CC1 [limonene]
stimulation of cAMP production (odorant specificity) (mOR-EG [2]): Only eugenol stimulated production of cAMP

CCCCCC(C)O (stereo not drawn) [2-heptanol]
stimulation of cAMP production (odorant specificity) (mOR-EG [2]): Only eugenol stimulated production of cAMP
